Data set [1] concerns non-specific promoter (BAX promoter-driven luciferase) in HEK-293T cells. Kind of data set: irrelevant promoter-containing cell-based reporter assay (luciferase driven by the BAX promoter, control). To be noted: BAX promoter luciferase in HEK-293T cells, indicator of non-specific toxicity. In general terms: Reporter assays use an easily measured gene product as a stand-in for the process of interest.

For data set [2], the system named is influenza A/Puerto Rico/8/34 virus. Kind of data set: Hemagglutination assay of influenza A replication in MDCK cells. Format: cell-based. Particulars: 75 uM compound, influenza A/Puerto Rico/8/34 dilution series, FIG. 5A.
Data set [3] deals with influenza A reporter assay system (viral UTR promoter / viral RNA-dependent RNA polymerase). Type of data set: cell-based, Influenza A virus (mouse B16-F10 melanoma cells).

Molecules are shown by their SMILES.

On to `O=C(Nc1ccc(S(=O)(=O)Nc2nccs2)cc1)c1cc(-c2ccccc2)nc2ccccc12` [A0259, 2-phenyl-N-{4-[(1,3-thiazol-2-yl)sulfamoyl]phenyl}quinoline-4-carboxamide], for which the “impact on a non-specific promoter” value in data set [1] was “smallest impact”. In addition, in data set [2], the “inhibition of influenza A viral replication in recipient cells (hemagglutination, settling cell buttons)” value was “viral dilutions below a thousand-fold from stock were inhibited from successfully replicating”. Also, in data set [3], the “inhibition of the influenza reporter system” value is listed as “most dramatic inhibition”.

The values are drawn from US9315464B1 (priority 2013, dated 2016).
